Laboratory results from patent publication US6599917B1, “Quinuclidine compounds and drugs containing the same as the active ingredient” (priority 1999, dated 2003).

Columns and labels:
cholesterol biosynthesis [1] = assay: Measurement of cholesterol biosynthesis inhibitive activity in a rat; format: in vivo; details: 2 h; male SD rat, oral, dose 1 mg/kg, inhibition rate to control group
Procedure: Measurement of Cholesterol Biosynthesis Inhibitive Activity in a Rat
(I) An SPF grade male SD rat (4 weeks age, SLC) was bred for more than one week in a day-night-reversal room and subjected to an experiment made in the daytime. The compound dissolved in a 2% Tween 80 solution was administered (5 ml/kg) to the rat using an oral sonde. After one hour, a [1-^14C]Acetic acid, sodium salt (1.67-2.22 GBq/mmol, 37 MBq/ml, NEN) prepared by diluting to 1.85 MBq/ml by using physiological saline was intraabdominally administered (300 μ1/animal). After one hour, the rat was anesthetized by diethyl ether to carry out exsanguination from the aorta abdominalis. The collected blood was centrifuged at 3000 rpm for 10 minutes to prepare blood plasma.
(II) 1 ml of 4N KOH and 1 ml of ethanol were added to 2 ml of the blood plasma, which was then incubated at 65° C. for one hour and there after, 3 ml of petroleum ether was added. The plasma was shaken for 30 minutes. After the water phase was separated from the organic phase by centrifugation, it was frozen at −80° C. and the radiative activity of the organic phase was measured using a liquid scintillation counter. Or the organic phase was evaporated to dryness using nitrogen gas and the residue was dissolved as a marker in 25 µl of chloroform containing squalene, farnesol and cholesterol. This sample was applied to a TCL plate (Merck) and developed using toluene and isopropyl ether (1:1) for 15 to 20 minutes. A band of cholesterol was cut from the plate to measure the radiative activity by using a liquid scintillation counter. The cholesterol biosynthesis inhibition activity was expressed by an inhibition rate (%) to a control group.

[2] = system: triglyceride biosynthesis; assay: Measurement of triglyceride biosynthesis inhibitive activity in a rat liver cell; format: cell-based; details: Rattus norvegicus, 6 h, read-out: Triglyceride biosynthesis inhibitive activity inhibition in 1 μM of the specimen
Procedure: (§1) Measurement of Cholesterol and Triglyceride Biosynthesis Inhibitive Activities in a Rat Liver Cell
(§2) A liver cell was isolated from a male SD rat according to a usual method (collagenase perfusion method) and subjected to an experiment.
(§3) The isolated liver cells were planted in an amount of 500 μ1 every well on a Type collagen coated 24 well plate (cell density: 4×10^5 cell/ml). As the cell culture solution, a Williams'E medium (adjusted to pH 7.4) containing 10% FCS, 1 μM insulin, 1 μM dexamethasone, 100 units/ml penicillin and 10 μg/ml streptomycin was used. After the liver cells were incubated in a CO2 incubator for 2 hours, unstuck cells were removed and the liver cells were further incubated overnight.
(§4) After the culture medium was exchanged, the specimen diluted in a 10% DMSO-90% cell culture solution was added to each well in an amount of 5 μ1. DMSO (final concentration: 0.1%) was added to a control group. A [1-^14C]Acetic acid, sodium salt (5 μCi/well) was added to the media 10 minutes and 4 hours after the specimen was added for the measurement of cholesterol synthesis inhibitive action and for the measurement of triglyceride synthesis inhibitive action respectively, followed by culturing for further 2 hours.
(§5) After the cultivation was finished, the supernatant was removed and the cells were washed using PBS(−)(Phosphate buffered saline (Ca^2+, Mg^2+free) twice. Hexane/isopropyl alcohol (3:2, v/v) was added to the cells and the cells were then allowed to stand for 10 minutes to extract intracellular lipid. The extract was transferred to a glass tube and exsiccated under a nitrogen gas stream. Further, the exsiccated extract was washed with 25 mL of petroleum ether and then dissolved in petroleum ether containing the following components: 0.01% squalene, 0.3% free cholesterol, 0.3% cholesterol acetate, 0.1% triolein, 0.01% farnesol and 0.3% lanosterol.
(§6) The resulting solution was spotted on a TLC plate to perform an isolating operation. The spotted solution was developed for 10 minutes by using toluene/isopropyl ether (1:1, v/v) as the solvents and for further 15 minutes by using heptane in place of the above solvent after it was dried using air.
(§7) After the development was finished, the TLC plate was subjected to iodine color development. After each position of free cholesterol and triolein which were used as standards was confirmed, the image of the TLC plate was transferred to a BAS 2000 (Fuji Film) imaging plate by exposure performed for 16 hours. This transferred image was analyzed using a BAS 2000 IP Reader and an Imaging analyzer II to measure radiative activities contained in the free cholesterol and triglyceride fractions.
(§8) The cholesterol biosynthesis inhibitive activity was expressed by a concentration (IC50) at which 50% of the radiative activity of the control group was inhibited and the triceride biosynthesis inhibitive activity was expressed by an inhibition rate (%) to the control group.

[3] = target: T1, squalene synthesizing enzyme (Rattus norvegicus, UniProt Q02769); assay: Measurement of squalene synthesizing enzyme inhibitive activity by using a rat liver microsome; format: biochemical; details: [3H]-farnesylpyrophosphoric acid
T1 construct: The liver was excised from a male Spraugue-Dawly rat; from tissue; host or cells: liver microsome fraction of male Sprague-Dawley rat (8 to 9 weeks)
T1 sequence (Q02769 1-416): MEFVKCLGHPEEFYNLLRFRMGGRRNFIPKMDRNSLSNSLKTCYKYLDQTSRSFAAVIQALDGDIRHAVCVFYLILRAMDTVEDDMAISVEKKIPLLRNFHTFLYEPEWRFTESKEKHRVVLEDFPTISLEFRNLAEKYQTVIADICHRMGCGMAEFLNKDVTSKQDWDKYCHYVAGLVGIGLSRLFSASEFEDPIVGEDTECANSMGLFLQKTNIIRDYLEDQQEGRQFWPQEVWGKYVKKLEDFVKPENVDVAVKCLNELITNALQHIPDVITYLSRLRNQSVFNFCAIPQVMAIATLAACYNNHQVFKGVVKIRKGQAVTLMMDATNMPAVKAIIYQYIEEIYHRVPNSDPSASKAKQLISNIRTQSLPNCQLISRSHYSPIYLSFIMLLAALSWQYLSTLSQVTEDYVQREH
Procedure: Measurement of Squalene Synthesizing Enzyme Inhibitive Activity by Using a Rat Liver Microsome
(I) The reaction was run on a scale of 500 μ1. 200 µl of a solution containing 125 mM tris-hydrochloric acid (pH: 7.3), 2.5 mM magnesium chloride, 5 mM potassium fluoride and 10 mM reduction type nicotinamidoadenine dinucleotide phosphoric acid, 100 µl of the specimen solution with a 5-fold concentration, 100 µl of distilled water and 50 µl of 0.4 to 1 mg/ml rat liver microsome prepared by the following method were mixed.
(II) The above mixture was pre-incubated at 37° C. for 10 minutes and thereafter, 50 µl of 100 μM [^3H]-farnesylpyrophosphoric acid (30 mCi/mmol, NEN) was added to the mixture to start a reaction. The reaction was continued at 37° C. for 10 minutes. 1 ml of ethanol was added to the resulting mixture to terminate the reaction and then 1 ml of distilled water and 3 ml of petroleum ether were added to the reaction solution, which was then shaken for 30 minutes. The water phase was separated from the oil phase, the water phase was frozen at −70° C. in dry ice/methanol and the radiative activity of the organic phase was measured using a liquid scintillator. Or the organic phase was evaporated to dryness using nitrogen gas and the residue was dissolved as a marker in 25 µl of chloroform containing squalene, farnesol and cholesterol. This sample was spotted on a TCL plate (Merck) and developed using heptane for 15 to 20 minutes. A band of squalene was cut from the plate to measure the radiative activity by using a liquid scintillation counter. The data was expressed by a concentration (IC50) at which 50% of the radiative activity of a control group was inhibited.
Method of the Preparation of a Rat Liver Microsome
The following operations were all carried out on ice and the centrifugation was performed at 4° C. The liver was excised from a male Spraugue-Dawly rat (hereinafter referred to as SD rat) (8 to 9 weeks age) and perfused with 1.15% potassium chloride to remove the blood. Then, the liver was minced using a forceps and the minced liver was homogenized using a Teflon homogenizer. The resulting sample was centrifuged at 16000×g twice for 15 minutes. The supernatant was further centrifuged at 105000×g for 60 minutes. The obtained deposit was determined as a microsome fraction, which was then suspended in a 25 mM tris-hydrochloric acid solution. The concentration of protein was measured quantitatively by a Bradford method and the concentration of protein was adjusted to 20 mg/ml by using the same solution. The resulting solution was stored at […].

cholesterol biosynthesis [4] = assay: Measurement of cholesterol biosynthesis inhibitive activity in a rat liver cell; format: cell-based; details: 10 min; isolated rat liver cells, [1-14C]acetic acid added 10 minutes after the specimen
Procedure: as §1, §2, §3, §4, §5, §6, §7, §8

`O[C@]1(C#Cc2ccc(OCC3OCCO3)nc2Cc2ccccc2)CN2CCC1CC2` [Example 153, (3R)-3-[2-Benzyl-6-(1,3-dioxolan-2-yl)methyloxy-3-pyridyl]ethynyl-3-quinuclidinol] was tested, and the inhibition in vivo at 1 mg/kg (cholesterol biosynthesis [1]) was 82%, the inhibition at 1 µM [2] was 85% and the IC50 [3] was 11 nM. For the same compound, the IC50 (cholesterol biosynthesis [4]) was 55 nM.
